Data taken from ChEMBL document CHEMBL5316327, “Design and Synthesis of Orally Active Quinolyl Pyrazinamides as Sigma 2 Receptor Ligands for the Treatment of Pancreatic Cancer” (J Med Chem, 2023).
The source made the active and inactive calls. No cut-off for these calls is given here.

Key:
MIA PaCa-2 [1] = assay: cells; conditions: Homo sapiens, MIA PaCa-2, 72 h
[2] = target: Sigma non-opioid intracellular receptor 1 (Homo sapiens, UniProt Q99720); assay: Displacement of [3H](+)-pentazocine from human sigma 1 receptor transfected in human HEK293T cells assessed as inhibition constant by radioligand competition binding assay; format: cell-based
[3] = target: Sigma intracellular receptor 2 (Homo sapiens, UniProt Q5BJF2); assay: Displacement of [3H][…]ditolylguanidine from human sigma 2 receptor transfected in human HEK293T cells assessed as inhibition constant by radioligand competition binding assay; format: cell-based
[4] = Metabolic stability in human liver microsomes assessed as half life at 10 uM measured upto 60 mins in presence of NADPH by LC-MS/MS analysis; format: ADME, Microsome; conditions: for t1/2: microsomes, 1 h, 10 µM
[5] = Metabolic stability in mouse liver microsomes assessed as half life at 10 uM measured upto 60 mins in presence of NADPH by LC-MS/MS analysis; format: ADME, Microsome; conditions: 1 h
MIA PaCa-2 [6] = assay: Upregulation of GRP78 in human MIA PaCa-2 cells at 10 to 30 uM measured after 24 hrs by Western blot analysis; format: functional, cell-based; conditions: dose 10-30 µM
PANC-1 = assay: cells; conditions: Homo sapiens, PANC-1, 72 h
[7] = Cytotoxicity against HPDE cells measured after 72 hrs by MTT assay; format: toxicity, cell-based; conditions: human
BXPC-3 = assay: cells; conditions: Homo sapiens, BXPC-3, 72 h
[8] = Cytotoxicity against HFF-1 cells measured after 72 hrs by MTT assay; format: toxicity, cell-based; conditions: human
MIA PaCa-2 [9] = assay: Inhibition of colony formation in human MIA PaCa-2 cells at 0.04 to 30 uM pretreated with ammonium tetrathiomolybdate for 4 hrs followed by compound addition and measured after 6 days; format: functional, cell-based; conditions: dose 0.04-30 µM, time 6.0 day
HCT-116 = assay: Inhibition of colony formation in human HCT-116 cells at 0.04 to 30 uM pretreated with ammonium tetrathiomolybdate for 4 hrs followed by compound addition and measured after 6 days; format: functional, cell-based; conditions: dose 0.04-30 µM, time 6.0 day
MIA PaCa-2 [10] = assay: Antagonistic cytotoxicity against human MIA PaCa-2 cells at 0.001 to 0.1 uM measured after 7 days in presence of ammonium tetrathiomolybdate by crystal violet staining based analysis; format: functional, cell-based; conditions: dose 0.001-0.1 µM, time 7.0 day
[11] = Cytotoxicity against HEK293 cells measured after 72 hrs by MTT assay; format: toxicity, cell-based; conditions: human
Panc02 = assay: cells; conditions: Mus musculus, Panc02, 72 h
cells = conditions: Mus musculus, KPC2, 72 h
MIA PaCa-2 [12] = assay: Synergistic cytotoxicity against human MIA PaCa-2 cells at 0.001 to 0.1 uM measured after 7 days in presence of copper chloride by crystal violet staining based analysis; format: functional, cell-based; conditions: dose 0.001-0.1 µM, time 7.0 day

Sigma non-opioid intracellular receptor 1, sequence (Q99720 whole entry): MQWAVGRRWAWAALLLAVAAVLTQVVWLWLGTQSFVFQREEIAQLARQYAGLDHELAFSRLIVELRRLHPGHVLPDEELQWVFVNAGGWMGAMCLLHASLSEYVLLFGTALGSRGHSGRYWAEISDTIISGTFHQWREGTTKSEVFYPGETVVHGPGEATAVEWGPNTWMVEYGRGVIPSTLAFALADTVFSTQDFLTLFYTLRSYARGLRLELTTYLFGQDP
Sigma intracellular receptor 2, sequence (Q5BJF2 whole entry): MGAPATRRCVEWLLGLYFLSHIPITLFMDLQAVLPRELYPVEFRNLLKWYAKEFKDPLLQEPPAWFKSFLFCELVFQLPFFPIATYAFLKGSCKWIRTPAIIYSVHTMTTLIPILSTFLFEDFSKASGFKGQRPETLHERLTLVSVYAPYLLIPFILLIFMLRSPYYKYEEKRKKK

| IC50 (MIA PaCa-2 [1]) | Ki [2] | Ki [3] | Compound | also measured |
| --- | --- | --- | --- | --- |
| 3800 nM | 155 nM | 51 nM | CCN(CC)CCCC(C)Nc1cnc(C(=O)Nc2cccc3cc(Cl)cnc23)cn1 (stereo not given) | – |
| 2300 nM | 137 nM | 13 nM | CCN(CC)CCCC(C)Nc1cnc(C(=O)Nc2cc(OC)cc3cccnc23)cn1 (stereo not given) | – |
| > 30000 nM | 463 nM | 52 nM | CCN(CC)CCCC(C)NCC(=O)Nc1cc(C)cc2cccnc12 (stereo not given) | – |
| 3700 nM | 196 nM | 22 nM | CCN(CC)CCCC(C)Nc1cnc(C(=O)Nc2cccc3cccnc23)cn1 (stereo not given) | – |
| > 30000 nM | 1460 nM | 65 nM | CCN(CC)CCCC(C)Nc1cnc(CNc2cc(F)cc3cccnc23)cn1 (stereo not given) | – |
| > 30000 nM | – | 2660 nM | CCN(CC)CCCC(C)Nc1cnc(C(=O)Nc2c(C)ccc3cccnc23)cn1 (stereo not given) | – |
| 600 nM | 112 nM | 1340 nM | CN(C)CCOc1cnc(C(=O)Nc2cc(F)cc3cccnc23)cn1 | – |
| 1500 nM | 159 nM | 32 nM | CCN(CC)CCCC(C)Nc1nc(C(=O)Nc2cc(F)cc3cccnc23)cs1 (stereo not given) | t1/2 [4]: 23 min; t1/2 [5]: 3.3 min |
| 1600 nM | 46 nM | 27 nM | CCN(CC)CCCC(C)Nc1cnc(C(=O)Nc2cc(Br)cc3cccnc23)cn1 (stereo not given) | – |
| 7400 nM | 166 nM | 129 nM | Cc1cc(NC(=O)c2cnc(N3CCN(CCN)CC3)cn2)c2ncccc2c1 | – |
| 4900 nM | 83 nM | 12 nM | CCN(CC)CCCC(C)Nc1cnc(C(=O)Nc2cccc3ccc(Cl)nc23)cn1 (stereo not given) | – |
| 2300 nM | 169 nM | 16 nM | CCN(CC)CCCC(C)Nc1cnc(C(=O)Nc2cccc3cc(C)cnc23)cn1 (stereo not given) | – |
| 20000 nM | – | – | O=C(CCNc1cnc(C(=O)Nc2cc(F)cc3cccnc23)cn1)NO | – |
| 2400 nM | 110 nM | 105 nM | CN(C)CCCNc1cnc(C(=O)Nc2cc(F)cc3cccnc23)cn1 | – |
| > 30000 nM | 2290 nM | 3770 nM | O=C(Nc1cc(F)cc2cccnc12)c1cnc(NCCN2CCS(=O)(=O)CC2)cn1 | – |
| 2000 nM | 208 nM | 165 nM | O=C(Nc1cc(F)cc2cccnc12)c1cnc(NCCN2CCCC2)cn1 | – |
| 5400 nM | 356 nM | 79 nM | CCN(CC)CCCC(C)Nc1cnc(C(=O)Nc2ccc(Cl)c3ccc(OC)nc23)cn1 (stereo not given) | – |
| 1200 nM | – | – | COCCNc1cnc(C(=O)Nc2cc(F)cc3cccnc23)cn1 | – |
| 9900 nM | 233 nM | 44 nM | CCN(CC)CCCC(C)Nc1cnc(C(=O)Nc2cccc3ccc(C)nc23)cn1 (stereo not given) | – |
| 1800 nM | 95 nM | 14 nM | CCN(CC)CCCC(C)Nc1cnc(C(=O)Nc2cc(Cl)cc3cccnc23)cn1 (stereo not given) | – |
| – | – | – | Fc1ccc(-n2cc(CCCCN3CCC4(CC3)OCc3ccccc34)c3ccccc32)cc1 | Activity (MIA PaCa-2 [6]): Active |
| 7900 nM | 1270 nM | 458 nM | CCN(CC)CCCC(C)Nc1cnc(C(=O)Nc2cc(O)cc3cccnc23)cn1 (stereo not given) | – |
| 3900 nM | 122 nM | 28 nM | CCN(CC)CCCC(C)Nc1cnc(C(=O)Nc2cc(F)c(Cl)c3cccnc23)cn1 (stereo not given) | – |
| 2600 nM | – | – | CCCNc1cnc(C(=O)Nc2cc(F)cc3cccnc23)cn1 | – |

| IC50 (MIA PaCa-2 [1]) | Ki [2] | Ki [3] | Compound | also measured |
| --- | --- | --- | --- | --- |
| 3000 nM | 71 nM | 27 nM | CCN(CC)CCCC(C)Nc1cnc(C(=O)Nc2cc(C3CC3)cc3cccnc23)cn1 (stereo not given) | – |
| 3200 nM | 67 nM | 36 nM | CCN(CC)CCCC(C)Nc1cnc(C(=O)Nc2cc(C)c(Cl)c3cccnc23)cn1 (stereo not given) | – |
| 15600 nM | 677 nM | 400 nM | Cc1cc(NC(=O)c2cnc(NCCN3CCNCC3)cn2)c2ncccc2c1 | – |
| 4900 nM | 385 nM | 155 nM | CCN(CC)CCCC(C)Nc1cnc(C(=O)Nc2cc(C(F)(F)F)cc3cccnc23)cn1 (stereo not given) | – |
| > 30000 nM | – | – | O=C(Nc1cc(F)cc2cccnc12)c1cnc(NS(=O)(=O)CCC(F)(F)F)cn1 | – |
| 1700 nM | 398 nM | 42 nM | CCN(CC)CCCC(C)Nc1cnc(C(=O)Nc2ccc(C)c3cccnc23)cn1 (stereo not given) | – |
| > 30000 nM | – | – | CC(C)CS(=O)(=O)Nc1cnc(C(=O)Nc2cc(F)cc3cccnc23)cn1 | – |
| – | – | – | O=C(Nc1cccc2cccnc12)c1cnccn1 | IC50 (PANC-1): 1700 nM; IC50 at 72 h [7]: 600 nM; IC50 (BXPC-3): 1800 nM; IC50 at 72 h [8]: > 30000 nM; inhibition (MIA PaCa-2 [9]): inactive; inhibition (HCT-116): inactive; Activity (MIA PaCa-2 [10]): Active; IC50 at 72 h [11]: 200 nM; IC50 (Panc02): 300 nM; IC50 (cells): 200 nM; Activity (MIA PaCa-2 [12]): Active |
| 3400 nM | 59 nM | 20 nM | CCN(CC)CCCC(C)Nc1cnc(C(=O)Nc2cccc3c(Cl)ccnc23)cn1 (stereo not given) | – |
| 3000 nM | 212 nM | 18 nM | CCN(CC)CCCC(C)Nc1cnc(C(=O)Nc2ccc(F)c3cccnc23)cn1 (stereo not given) | – |
| – | – | – | O=C(CN1CCC(CN2Cc3ccccc3C2=O)CC1)c1ccc(F)cc1 | Activity (MIA PaCa-2 [6]): Active |
| 1400 nM | 627 nM | 471 nM | CN(C)CCNc1cnc(C(=O)Nc2cc(F)cc3cccnc23)cn1 | – |
| 1100 nM | 250 nM | 85 nM | CCN(CC)CCCC(C)Nc1cnc(C(=O)Nc2cc(C)cc3cccnc23)cn1 (stereo not given) | t1/2 [5]: 21 min |
| – | – | – | Nc1ccn([C@@H]2O[C@H](CO)[C@@H](O)C2(F)F)c(=O)n1 [GEMCITABINE] | IC50 at 72 h [7]: 1 nM; IC50 at 72 h [11]: 100 nM |
| 1900 nM | 67 nM | 13 nM | CCN(CC)CCCC(C)Nc1cnc(C(=O)Nc2cccc3ccc(OC)nc23)cn1 (stereo not given) | half-life at 10 µM ([4]; liver microsomes): > 60 min; t1/2 [5]: 54 min |
| 10100 nM | 405 nM | 108 nM | CCN(CC)CCCC(C)Nc1cnc(C(=O)Nc2cc(C#N)cc3cccnc23)cn1 (stereo not given) | – |
| > 30000 nM | – | 1630 nM | CCN(CC)CCCC(C)Nc1cnc(C(=O)Nc2c(OC)ccc3cccnc23)cn1 (stereo not given) | – |
| 9500 nM | 159 nM | 71 nM | CCN(CCO)CCCC(C)Nc1cnc(C(=O)Nc2cc(C)cc3cccnc23)cn1 (stereo not given) | – |
| 6800 nM | 317 nM | 40 nM | CCN(CC)CCCC(C)Nc1cnc(C(=O)Nc2ccc(OC)c3cccnc23)cn1 (stereo not given) | – |
| 3800 nM | 188 nM | 38 nM | CCN(CC)CCCC(C)Nc1ccc(S(=O)(=O)Nc2cc(F)cc3cccnc23)nc1 (stereo not given) | t1/2 [4]: 39.2 min; t1/2 [5]: 15 min |
| 600 nM | 508 nM | 2150 nM | Cc1cc(NC(=O)c2cnc(S(=O)(=O)NCCN(C)C)cn2)c2ncccc2c1 | t1/2 [5]: 6 min |
| 6500 nM | 336 nM | 134 nM | Cc1cc(NC(=O)c2cnc(OC3CCNCC3)cn2)c2ncccc2c1 | – |
| 2900 nM | 132 nM | 70 nM | CCN(CC)CCCC(C)Nc1cnc(C(=O)Nc2ccc(OC)c3ccc(OC)nc23)cn1 (stereo not given) | – |
